In one assay the target is T1, human PPARα (Homo sapiens, UniProt Q07869).
T1 construct: expressed in transfected cells; host or cells: CV-1 (monkey kidney) cells, transient transfection
T1 sequence (Q07869 159-468): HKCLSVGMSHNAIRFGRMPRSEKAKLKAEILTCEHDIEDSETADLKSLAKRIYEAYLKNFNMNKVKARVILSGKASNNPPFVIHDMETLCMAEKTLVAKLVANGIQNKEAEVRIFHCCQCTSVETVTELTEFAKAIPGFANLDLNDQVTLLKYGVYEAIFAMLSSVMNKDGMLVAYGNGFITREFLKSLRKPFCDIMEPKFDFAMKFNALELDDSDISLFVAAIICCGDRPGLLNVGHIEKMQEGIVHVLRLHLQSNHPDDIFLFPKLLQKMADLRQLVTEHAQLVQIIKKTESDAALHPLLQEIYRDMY
As to the kind of experiment: PPAR-GAL4 transactivation assay in transiently transfected CV-1 cells. The format is cell-based. The following applies: PPAR-GAL4 chimeric receptor, CV-1 cells; read-out: EC50(nM) hPPARα. Here is the method: (§1) To assess the functional transcriptional activity of these compounds, cell-based assays using chimeric receptor Gal4 DNA-binding domain (DBD)-NR ligand binding domain cotransfection assay (LBDs of PPARα, PPARγ, and PPARδ) were performed. As an initial screen to determine the PPARα activity and selectivity, all compounds were evaluated for in vitro potency and selectivity by transfection testing, using CV-1 cells transfected with human and mouse PPARs. MH100×4 is a luciferase reporter with four copies of a GAL4 UASG response element, where GAL-I refers to the ligand-binding domain of the indicated receptor fused to the C-terminus of the GAL4 DNA-binding domain. Assays were performed using a Biomek automated workstation in which the genes for the nuclear receptor, as well as a plasmid containing a response element upstream of a luciferase cDNA, are transfected into CV-1 cells. Compounds were evaluated for their ability to activate human and mouse PPARs at […] test concentrations. […] The transactivation activity of the series of compounds (DY121-132, 10a-g) toward PPARα was expressed as EC50, which is the concentration of the test compound that affords half-maximum activity, as summarized in Table 1.
Cell-based reporter gene assays Cell based transactivation assays were performed in CV 1 cells as described (Forman, et al.). PPARα activity was assayed with a GAL4 reporter construct and fusion proteins containing the ligand binding domains of human PPARα, human PPARγ and human PPARδ linked to the DNA binding domain of yeast GAL4. Reporter constructs (300 ng/10^5 cells) and cytomegalovirus-driven expression vectors (20-50 ng/10^5 cells) were added as indicated along with CMX-b-gal (500 ng/10^5 cells) as an internal control. Cells were transiently transfected by Lipofectamine as described. Cells were incubated with DNA complexed liposomes for 2 h and subsequently treated for approximately 45 h with phenol red free DMEM FBS containing the indicated compounds. After exposure to ligand, the cells were harvested and assayed for luciferase and β-galactosidase activity. All points were assayed in triplicate and varied by less than 15%. Each experiment was repeated three or more times with similar results. Fold activation is reported.
(§2) In vitro binding and transfection studies. As an initial screen to determine the PPARα, PPARγ, and PPARδ activity, all compounds were evaluated for in vitro potency and selectivity by transfection testing, using CV-1 cells transfected with human and mouse PPARs. MH100×4 is a luciferase reporter with four copies of a GAL4 USAG response element, where GAL-I refers to the ligand-binding domain of the indicated receptor fused to the C-terminus of the GAL4 DNA-binding domain. Assays were performed using a Biomek automated workstation in which the gene for the nuclear receptor, as well as a plasmid containing a response element upstream of a luciferase cDNA, are transfected into CV-1 cells. Compounds were evaluated for their ability to activate human PPARs at 1, 2.5, 3, and 5 uM test concentrations.
(§3) Compounds were screened for agonist activity towards PPAR-GAL4 chimeric receptors in transiently transfected CV-1 cells as described. EC50 is the concentration of test compound that gave 50% maximum efficacy.

The next assay addresses T2, mouse PPARα (Mus musculus, UniProt P23204).
T2 construct: expressed in transfected cells; host or cells: CV-1 (monkey kidney) cells, transient transfection
T2 sequence (P23204 159-468): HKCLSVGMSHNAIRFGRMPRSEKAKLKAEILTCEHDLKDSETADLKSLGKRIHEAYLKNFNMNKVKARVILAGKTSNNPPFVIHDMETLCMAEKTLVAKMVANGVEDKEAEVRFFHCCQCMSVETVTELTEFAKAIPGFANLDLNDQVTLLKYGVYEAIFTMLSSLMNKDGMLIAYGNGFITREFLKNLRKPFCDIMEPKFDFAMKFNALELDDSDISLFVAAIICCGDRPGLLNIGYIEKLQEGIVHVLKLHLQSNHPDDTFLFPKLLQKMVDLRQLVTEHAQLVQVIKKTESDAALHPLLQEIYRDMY
Described as above. The format is cell-based. The following applies: PPAR-GAL4 chimeric receptor, read-out: EC50(nM) mPPARα. Here is the method: as §1, §2, §3

For the next assay, the target named is T3, PPARα (Homo sapiens, UniProt Q07869).
T3 construct: expressed in transfected cells; host or cells: CV-1 (monkey kidney) cells
T3 sequence (Q07869 1-468): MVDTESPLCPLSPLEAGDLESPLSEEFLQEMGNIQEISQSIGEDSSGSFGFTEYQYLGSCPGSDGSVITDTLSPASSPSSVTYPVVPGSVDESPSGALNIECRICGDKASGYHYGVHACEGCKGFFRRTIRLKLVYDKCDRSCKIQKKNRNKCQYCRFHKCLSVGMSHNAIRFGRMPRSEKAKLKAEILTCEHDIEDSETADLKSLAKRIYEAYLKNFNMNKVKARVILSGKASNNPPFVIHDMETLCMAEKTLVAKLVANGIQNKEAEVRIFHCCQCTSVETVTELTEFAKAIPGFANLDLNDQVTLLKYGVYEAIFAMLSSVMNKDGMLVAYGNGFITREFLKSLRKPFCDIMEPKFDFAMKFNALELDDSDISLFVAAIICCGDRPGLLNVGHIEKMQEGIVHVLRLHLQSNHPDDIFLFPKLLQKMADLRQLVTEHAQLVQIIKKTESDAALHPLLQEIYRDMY
T3 sequence (P19793 1-462 partner): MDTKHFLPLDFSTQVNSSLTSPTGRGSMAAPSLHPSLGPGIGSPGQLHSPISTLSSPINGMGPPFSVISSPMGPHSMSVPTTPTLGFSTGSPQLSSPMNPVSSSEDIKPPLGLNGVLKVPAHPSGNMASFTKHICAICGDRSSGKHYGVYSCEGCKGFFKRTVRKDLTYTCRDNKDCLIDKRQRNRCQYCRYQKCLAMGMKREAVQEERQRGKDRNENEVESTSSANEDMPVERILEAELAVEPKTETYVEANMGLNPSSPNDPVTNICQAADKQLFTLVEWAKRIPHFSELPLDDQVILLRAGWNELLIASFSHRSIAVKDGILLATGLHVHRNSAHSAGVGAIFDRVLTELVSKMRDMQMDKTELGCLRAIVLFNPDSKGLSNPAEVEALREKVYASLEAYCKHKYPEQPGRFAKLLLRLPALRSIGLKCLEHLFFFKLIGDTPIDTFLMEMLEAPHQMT
The assay can be described thus: PPRE-luc reporter assay in CV-1 cells co-transfected with PPARα and RXRα expression plasmids. In kind it is cell-based. Particulars: luciferase reporter. The method, then:
In brief, monkey kidney CV-1 cells were co-transfected with appropriate reporter constructs and expression vectors. The fold activation of the reporter construct by ligand was determined at several concentrations of selected compounds (FIG. 4).^20 To examine the effect of DY-compound on PPARα-mediated PPRE transcriptional activation, a PPRE-luc reporter assay was conducted using a PPRE-driven luciferase reporter-gene (PPRE-luc) plasmid and PPARα and RXRα gene expression plasmids in CV-1 cells.

In another assay the test system is C57Bl/6J female mice. The assay can be described thus: Serum triglyceride and lipid effects in C57Bl/6J female mice. Particulars: FIG. 7. In kind it is in vivo.

Regarding `COc1cccc(Cn2c(CCCc3ccc(OC(C)(C)C(=O)O)cc3)nn(Cc3ccc(C)cc3)c2=O)c1` [10b, 2-(4-{3-[4-(3-Methoxy-benzyl)-1-(4-methyl-benzyl)-5-oxo-4,5-dihydro-1H[1,2,4]triazol-3-yl]-propyl}-phenoxy)-2-methyl-propionic acid], the concentration for a half-maximal effect (EC50) at human PPARα turned out to be 2 nM; on mouse PPARα it was 20 nM.

`Cc1ccc(Cn2nc(CCCc3ccc(OC(C)(C)C(=O)O)cc3)n(Cc3ccccc3)c2=O)cc1` [10c, 2-(4-{3-[4-Benzyl-1-(4-methyl-benzyl)-5-oxo-4,5-dihydro-1H[1,2,4]triazol-3-yl]-propyl}-phenoxy)-2-methyl-propionic acid]: the figures for the concentration giving a half-maximal response (EC50) at human PPARα and on mouse PPARα were 1.5 nM and 20 nM, respectively.

As to `Cc1ccc(Cn2nc(CCCc3ccc(OC(C)(C)C(=O)O)cc3)n(Cc3ccc(F)cc3)c2=O)cc1` [10d, 2-(4-{3-[4-Fluoro-benzyl-1-(4-methyl-benzyl)-5-oxo-4,5-dihydro-1H[1,2,4]triazol-3-yl]-propyl}-phenoxy)-2-methyl-propionic acid], the EC50 was 1.5 nM at human PPARα and 10 nM at mouse PPARα.

On to `Cc1ccc(Cn2nc(CCCc3ccc(OC(C)(C)C(=O)O)cc3)n(Cc3ccc(C)cc3)c2=O)cc1` [10e, 2-(4-{3-[4-Methyl-benzyl-1-(4-methyl-benzyl)-5-oxo-4,5-dihydro-1H[1,2,4]triazol-3-yl]-propyl}-phenoxy)-2-methyl-propionic acid], for which the EC50 at human PPARα was found to be 1 nM; at mouse PPARα, 3 nM. For the same compound, the “PPARα activation / PPRE-luc activity” value on PPARα is “highest PPARα activation”.

Turning to `COc1cc(Cn2c(CCCc3ccc(OC(C)(C)C(=O)O)cc3)nn(Cc3ccc(C)cc3)c2=O)cc(OC)c1OC` [10f, 2-(4-{3-[3,4,5-Trimethoxy-benzyl-1-(4-methyl-benzyl)-5-oxo-4,5-dihydro-1H[1,2,4]triazol-3-yl]-propyl}-phenoxy)-2-methyl-propionic acid], the results for the EC50 on human PPARα and at mouse PPARα were 3 nM and 30 nM, respectively. The “dose-response of triglyceride suppression” value in the assay with C57Bl/6J female mice is given as “Dose-response suppression”.

For the compound `Cc1ccc(Cn2nc(CCCc3ccc(OC(C)(C)C(=O)O)cc3)n(Cc3ccccc3Cl)c2=O)cc1` [10g, 2-(4-{3-[2-Chloro-benzyl-1-(4-methyl-benzyl)-5-oxo-4,5-dihydro-11H[1,2,4]triazol-3-yl]-propyl}-phenoxy)-2-methyl-propionic acid], the values for the EC50 on human PPARα and on mouse PPARα were 1 nM and 10 nM, respectively. In addition, the “PPARα activation / PPRE-luc activity” value at PPARα is “highest PPARα activation”. Besides, the “dose-response of triglyceride suppression” value in the assay with C57Bl/6J female mice is listed as “Dose-response suppression”.

Consider `C=Cc1ccc(Cn2nc(CCCc3ccc(OC(C)(C)C(=O)O)cc3)n(Cc3ccc(C)cc3)c2=O)cc1` [10h], for which the EC50 at human PPARα came out at 12 nM; on mouse PPARα, 20 nM.

Usually EC50 stands for the midpoint of the concentration-response curve.

These data come from patent publication US20190077774A1, “PEROXISOME PROLIFERATOR-ACTIVATED RECEPTOR AGONISTS” (City of Hope, priority 2017, published 2019).
